Test: In vitro validation of enzymatic activities: LC-MS/MS detection of levulinyl-CoA after incubation of purified proteins with substrates
Type: biochemical, Ralstonia eutropha
Conditions: purified proteins incubated with their respective substrates; reverse phase UPLC, negative ion MS/MS
Text: To validate the activity of the candidates identified in Example 2 above with regard to reactions A1, A2 and B, their corresponding genes were cloned into the expression plasmid pPAL7 (Biorad®). In the case of QOKBZ9_CUPNH and Q0KC00_CUPNH, the corresponding genes were cloned in operon into the pPAL7. The resulting plasmids were transformed into E. coli BL21(DE3) strain.
The resulting strains were cultivated as described in patent application WO 2010/076324, incorporated herein by reference. Cells were collected by centrifugation and resuspended in potassium phosphate buffer 100 mM pH 7.6. Proteins were extracted by sonication and crude extracts were clarified by centrifugation. Recombinant protein purification was carried out using Biorad® PROfinity EXact cartridges according to the manufacturer's instructions. […]
Levulinyl-CoA was detected by reverse phase UPLC coupled to negative ion MS/MS, by searching for the transition from mass 864 (mass of levulinyl-CoA minus 1) to 408 (ion corresponding to the adenine part according to the protocol described by Zirrolli et al. 1994) as shown on FIG. 3.

Substance: Q0KBZ9_CUPNH/Q0KC00_CUPNH: the 2 subunits of succinyl-CoA:3-ketoacid-coenzyme A transferase (EC 2.8.3.5), candidate for reaction A2
- detection of levulinyl-CoA in the reaction mixture (transition 864 to 408): presence of levulinyl-CoA

Source: patent publication US10801050B2, “Microorganism modified for the assimilation of levulinic acid” (priority 2015, dated 2020)
